Results reported in article PMC7567334 (Environmental Health Perspectives, 2020).

Legend:
hERα-HeLa-9903 cells = assay: Cell viability (resazurin) in hERα-HeLa-9903 cells
GR = molecular target: T1, GR (Homo sapiens, UniProt P04150); assay: MDA-kb2 GR reporter assay, agonist setup (with FLU); type: cell-based; set-up: constitutively expressed high levels of functional GR and AR; host or cells: MDA-kb2; conditions: MDA-kb2
T1 sequence (P04150 1-777): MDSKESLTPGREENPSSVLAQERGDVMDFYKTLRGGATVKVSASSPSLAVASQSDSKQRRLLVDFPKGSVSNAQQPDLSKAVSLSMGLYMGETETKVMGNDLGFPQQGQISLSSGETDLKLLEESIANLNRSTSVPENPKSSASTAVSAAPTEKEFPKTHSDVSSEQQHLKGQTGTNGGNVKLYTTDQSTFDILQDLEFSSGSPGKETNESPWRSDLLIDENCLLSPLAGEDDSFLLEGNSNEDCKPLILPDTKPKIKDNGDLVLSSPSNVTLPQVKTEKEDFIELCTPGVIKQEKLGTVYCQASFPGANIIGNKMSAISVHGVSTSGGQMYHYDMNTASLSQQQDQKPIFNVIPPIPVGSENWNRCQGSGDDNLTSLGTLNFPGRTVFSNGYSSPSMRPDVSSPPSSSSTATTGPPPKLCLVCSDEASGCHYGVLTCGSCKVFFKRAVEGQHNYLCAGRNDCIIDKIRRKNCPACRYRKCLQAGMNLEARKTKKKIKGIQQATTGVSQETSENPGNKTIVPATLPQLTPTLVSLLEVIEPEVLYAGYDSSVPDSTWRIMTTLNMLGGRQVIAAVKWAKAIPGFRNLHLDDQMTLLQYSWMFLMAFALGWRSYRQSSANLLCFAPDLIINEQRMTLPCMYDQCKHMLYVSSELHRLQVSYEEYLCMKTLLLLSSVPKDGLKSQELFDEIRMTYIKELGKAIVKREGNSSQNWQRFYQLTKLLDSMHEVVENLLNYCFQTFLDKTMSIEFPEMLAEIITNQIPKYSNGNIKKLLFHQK

recombinant AR = conditions: ref Chen et al. 2008; cited from earlier work
human (h) ERα = molecular target: T2, human (h) ERα (Homo sapiens, UniProt P03372); assay: hERα-HeLa-9903 transactivation assay, agonist setup; type: cell-based; set-up: host or cells: hERα-HeLa-9903 (HeLa derived); conditions: for higher ERα RTA than vehicle control: vs 0.1% DMSO
T2 sequence (P03372 1-595): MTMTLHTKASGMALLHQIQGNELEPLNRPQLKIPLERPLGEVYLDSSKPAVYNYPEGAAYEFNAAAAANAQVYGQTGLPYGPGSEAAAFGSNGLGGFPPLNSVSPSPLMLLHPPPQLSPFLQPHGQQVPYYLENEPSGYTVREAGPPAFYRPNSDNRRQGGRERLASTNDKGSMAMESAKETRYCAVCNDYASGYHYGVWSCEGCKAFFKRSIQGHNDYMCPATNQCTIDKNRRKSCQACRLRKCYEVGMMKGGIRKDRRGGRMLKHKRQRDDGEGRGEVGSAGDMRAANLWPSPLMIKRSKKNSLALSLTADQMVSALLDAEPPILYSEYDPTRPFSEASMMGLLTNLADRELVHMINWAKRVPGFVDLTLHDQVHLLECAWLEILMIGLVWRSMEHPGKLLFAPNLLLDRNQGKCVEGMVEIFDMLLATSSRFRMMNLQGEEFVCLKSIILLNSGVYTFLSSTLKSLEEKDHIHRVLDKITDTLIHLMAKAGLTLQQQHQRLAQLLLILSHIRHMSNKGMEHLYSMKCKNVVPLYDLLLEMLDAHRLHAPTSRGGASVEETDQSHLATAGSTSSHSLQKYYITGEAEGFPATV

AroB transcription = conditions: 0.25 μM triclocarban added to 1 nM E2; zebrafish embryos; ref Chung et al. 2011; cited from earlier work
Glucocorticoid receptor = conditions: ref Kolšek et al. 2014a, cited from earlier work
human (h)AR = molecular target: T3, human (h)AR (Homo sapiens, UniProt P10275); assay: AR-EcoScreen hAR transcriptional activation assay, agonist setup; type: cell-based
T3 sequence (P10275 1-920): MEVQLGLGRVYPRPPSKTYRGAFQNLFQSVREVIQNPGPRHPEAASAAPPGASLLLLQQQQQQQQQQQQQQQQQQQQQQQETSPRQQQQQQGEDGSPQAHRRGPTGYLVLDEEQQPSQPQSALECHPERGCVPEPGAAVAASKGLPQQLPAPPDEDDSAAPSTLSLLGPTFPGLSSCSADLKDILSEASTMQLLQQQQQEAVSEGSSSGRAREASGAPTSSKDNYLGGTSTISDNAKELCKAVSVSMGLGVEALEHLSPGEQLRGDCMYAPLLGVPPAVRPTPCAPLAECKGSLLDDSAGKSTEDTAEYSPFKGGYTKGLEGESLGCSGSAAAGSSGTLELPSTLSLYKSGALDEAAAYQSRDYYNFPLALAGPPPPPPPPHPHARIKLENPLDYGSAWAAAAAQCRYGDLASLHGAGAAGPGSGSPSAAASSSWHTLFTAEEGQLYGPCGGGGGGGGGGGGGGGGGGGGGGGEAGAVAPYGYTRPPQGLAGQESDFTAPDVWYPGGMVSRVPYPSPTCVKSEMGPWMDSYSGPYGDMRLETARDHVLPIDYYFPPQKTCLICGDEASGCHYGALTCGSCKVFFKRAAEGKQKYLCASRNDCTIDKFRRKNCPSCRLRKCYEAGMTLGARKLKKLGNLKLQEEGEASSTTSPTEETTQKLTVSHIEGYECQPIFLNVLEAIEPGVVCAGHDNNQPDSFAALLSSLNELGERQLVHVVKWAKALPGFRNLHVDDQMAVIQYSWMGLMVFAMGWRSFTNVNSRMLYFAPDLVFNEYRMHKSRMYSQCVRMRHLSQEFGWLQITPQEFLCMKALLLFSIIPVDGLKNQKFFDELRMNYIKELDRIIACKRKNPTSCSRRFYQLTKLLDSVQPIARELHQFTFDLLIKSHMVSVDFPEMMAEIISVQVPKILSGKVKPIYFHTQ

Structure (SMILES): O=C(Nc1ccc(Cl)cc1)Nc1ccc(Cl)c(Cl)c1 [Triclocarban, 1-(4-Chlorophenyl)-3-(3,4-dichlorophenyl) urea]
- highest noncytotoxic concentration (hERα-HeLa-9903 cells; hERα-HeLa-9903): 5 µM
- highest tested concentration as limited by precipitation and cytotoxicity (hERα-HeLa-9903 cells; hERα-HeLa-9903, ERα agonist dose-response): 5 µM
- GR agonist activity (GR): no GR agonist activity
- binding to recombinant AR (recombinant AR): Negative for recombinant AR ([Chen et al. 2008])
- higher ERα RTA than vehicle control (human (h) ERα; 1 μM): 53%
- higher ERα RTA than vehicle control (human (h) ERα; 5 μM): 58%
- ERα agonist activity, call (human (h) ERα; hERα-HeLa-9903): Agonist
- concentration with ERα agonist activity (human (h) ERα; hERα-HeLa-9903): 1 to 5 µM
- increase in AroB transcription (AroB transcription): 18 fold
- effect on GR with HC (Glucocorticoid receptor; MDA-kb2 cells): Enhancer of HC activity in MDA-kb2 cells ([Kolšek et al. 2014a])
- concentration with enhanced HC activity on GR (Glucocorticoid receptor): 2 µM
- higher AR RTA than vehicle control (human (h)AR; 1 μM, vs 0.1% DMSO): 40.4%
- higher AR RTA over vehicle control (human (h)AR; 2.5 μM, vs 0.1% DMSO): 30.3%
- AR agonist activity, call (human (h)AR; AR-EcoScreen): Agonist
- concentration with AR agonist activity (human (h)AR; AR-EcoScreen): 1 to 2.5 µM
